Test systems include SK-MEL-28; DMS-273; HCC 2998; UACC-257; HT-29; HCT-15; HOP-92; OVCAR-8; EKVX; OVCAR-4; KM12; SR; COLO 205; MOLT-4; NCI-H23; Malme-3M; NCI-H226; SNB-19; OVCAR-3; SF-295.
What all share (assay): NCI-60 cell line screen, 48 h

Molecules are shown by their SMILES.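 These data come from cells grown in 96-well plates and exposed to compound for 48 hours at five concentrations. GI50: concentration for 50% inhibition of growth.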 Active and inactive are the calls of the source. Cut-off read from the data, not from the text of the source: active = GI50 up to about 1.1 µM and inactive = higher. Where only a bound is given, the exact number is not on record here.

On to `CCCCC(=O)OC[n+]1ccc2c(C)c3[nH]c4ccc(OC)cc4c3c(C)c2c1`, for which the GI50 in the assay on SK-MEL-28 was 1.32 µM (inactive); in the assay with DMS-273 it was 0.103 µM (active); with HCC 2998, 0.512 µM (active); in the assay on UACC-257, 2.13 µM (inactive); in the assay on HT-29, 0.243 µM (active); in the assay with HCT-15, 0.166 µM. The GI50 in the assay with HOP-92 is 1.23 µM (inactive); in the assay on OVCAR-8 it was 0.171 µM (active); in the assay on EKVX, 1.14 µM (inactive); in the assay on OVCAR-4 it was 0.796 µM (active); with KM12, 0.412 µM (active); in the assay on SR, 0.0506 µM (active). For the same compound, the GI50 with COLO 205 is 0.267 µM (active); in the assay with MOLT-4, 0.0396 µM (active); with NCI-H23, 0.536 µM (active); in the assay with Malme-3M it was 1.16 µM (inactive); in the assay on NCI-H226, 0.562 µM (active); in the assay with SNB-19, 0.364 µM (active). In addition, the GI50 with OVCAR-3 was 0.76 µM (active); with SF-295, 0.356 µM (active).

As to `Nc1nc(S)nc(C(=O)Nc2nccs2)c1-c1ccccc1`, the GI50 in the assay on SK-MEL-28 is > 100 µM (inactive); with DMS-273, > 100 µM (inactive); in the assay on HCC 2998, > 100 µM (inactive); in the assay with UACC-257, > 100 µM (inactive); in the assay with HT-29, > 100 µM (inactive); in the assay on HCT-15 it was above 100 µM. Further, the GI50 in the assay with HOP-92, with OVCAR-8, in the assay on EKVX, in the assay with OVCAR-4, with KM12 and in the assay with SR was > 100 µM (inactive) throughout. Also, the GI50 with COLO 205, in the assay with MOLT-4, with NCI-H23, in the assay on Malme-3M, with NCI-H226 and in the assay with SNB-19 was > 100 µM (inactive) each time. In addition, the GI50 in the assay on OVCAR-3 and with SF-295 was > 100 µM (inactive) in each case.

For `C=CC(=O)c1ccc2c(c1)OCCOCCOCCOCCOCCO2`, the GI50 in the assay with SK-MEL-28 was 18.7 µM (inactive); with DMS-273, 15.7 µM (inactive); in the assay with HCC 2998, > 100 µM (inactive); in the assay on UACC-257 it was 19.1 µM (inactive); with HT-29, 28.9 µM (inactive); in the assay on HCT-15, 21.6 µM. Also, the GI50 with HOP-92 was 17 µM (inactive); in the assay on OVCAR-8 it was 20 µM (inactive); in the assay on EKVX, 24 µM (inactive); with OVCAR-4, 20.3 µM (inactive); in the assay on KM12, > 100 µM (inactive); with SR, > 100 µM (inactive). In addition, the GI50 with COLO 205 is 17.7 µM (inactive); with MOLT-4, 38.1 µM (inactive); in the assay with NCI-H23 it was > 44.4 µM (inactive); in the assay with Malme-3M it was 18.5 µM (inactive); with NCI-H226, > 100 µM (inactive); with SNB-19, > 100 µM (inactive). Moreover, the GI50 was 19.7 µM (inactive) in the assay on OVCAR-3 and > 100 µM (inactive) with SF-295.

Take `N#C/C(=C1\OC(=O)C(c2ccc(Br)cc2)=C1O)c1ccc(Br)cc1`: the GI50 with SK-MEL-28 is 17.2 µM (inactive); in the assay on DMS-273 it was 21.3 µM (inactive); with HCC 2998, 15.5 µM (inactive); in the assay with UACC-257, 15.3 µM (inactive); in the assay with HT-29, 17.3 µM (inactive); in the assay on HOP-92, 16.1 µM (inactive). For the same compound, the GI50 was 12.1 µM (inactive) in the assay on OVCAR-8; 17.5 µM (inactive) in the assay on EKVX; 16.5 µM (inactive) with OVCAR-4; 14.9 µM (inactive) with KM12; 17.9 µM (inactive) in the assay with SR; 17.9 µM (inactive) in the assay with COLO 205. For the same compound, the GI50 with MOLT-4 is 17.2 µM (inactive); in the assay on NCI-H23 it was 12.9 µM (inactive); with Malme-3M it was 16.9 µM (inactive); in the assay with NCI-H226 it was 18.1 µM (inactive); in the assay with SNB-19 it was 14.4 µM (inactive); in the assay with OVCAR-3, 14.9 µM (inactive). Moreover, the GI50 in the assay on SF-295 was 17.7 µM (inactive).

As for `O=C1c2ccccc2C(=O)N1C/C=N/NS(=O)(=O)c1ccc(Br)cc1`, the GI50 in the assay on SK-MEL-28 was 80 µM (inactive); with DMS-273, > 100 µM (inactive); in the assay on HCC 2998 it was > 100 µM (inactive); with UACC-257 it was > 100 µM (inactive); in the assay with HT-29 it was > 100 µM (inactive); with HCT-15, above 100 µM. For the same compound, the GI50 in the assay with HOP-92 was 11 µM (inactive); in the assay on OVCAR-8, > 100 µM (inactive); in the assay with EKVX it was > 100 µM (inactive); in the assay with OVCAR-4 it was > 100 µM (inactive); in the assay with KM12, > 100 µM (inactive); in the assay on SR, > 100 µM (inactive). Further, the GI50 in the assay with COLO 205, with MOLT-4, with NCI-H23, with Malme-3M, in the assay on NCI-H226 and in the assay on SNB-19 was > 100 µM (inactive) throughout. Moreover, the GI50 in the assay on OVCAR-3 and in the assay with SF-295 was > 100 µM (inactive) each time.

For the compound `CC(=O)OC1CCn2nnc(CO)c21` (centres undefined), the GI50 was > 100 µM (inactive) in the assay on SK-MEL-28; > 100 µM (inactive) with DMS-273; > 100 µM (inactive) with HCC 2998; > 100 µM (inactive) in the assay on UACC-257; > 100 µM (inactive) in the assay with HT-29; above 100 µM with HCT-15. The GI50 in the assay with HOP-92, with OVCAR-8, in the assay with EKVX, in the assay with OVCAR-4, in the assay on KM12 and in the assay on SR was > 100 µM (inactive) throughout. The GI50 in the assay with COLO 205, in the assay on MOLT-4, with NCI-H23, in the assay with Malme-3M, with NCI-H226 and with SNB-19 was > 100 µM (inactive) each time. Besides, the GI50 in the assay on OVCAR-3 and with SF-295 was > 100 µM (inactive) each time.

`COc1cc2c(oc(=O)c3c4oc([Si](C)(C)C)cc4cc(OC)c23)c2cccc(OCc3ccccc3)c12`: the GI50 in the assay with SK-MEL-28 was 38.3 µM (inactive); in the assay on DMS-273 it was 25.3 µM (inactive); with HCC 2998, > 64.3 µM (inactive); in the assay with UACC-257, 47.6 µM (inactive); in the assay on HT-29, 48.9 µM (inactive); in the assay with HCT-15, above 70.5 µM. For the same compound, the GI50 in the assay with HOP-92 was 34.8 µM (inactive); in the assay on OVCAR-8 it was 38.5 µM (inactive); in the assay with EKVX it was > 66.5 µM (inactive); in the assay on OVCAR-4, 33.1 µM (inactive); with KM12 it was > 64.3 µM (inactive); with SR, 37.7 µM (inactive). Besides, the GI50 is 54.2 µM (inactive) in the assay with COLO 205; > 71.9 µM (inactive) in the assay on MOLT-4; 16.3 µM (inactive) in the assay on NCI-H23; 32.1 µM (inactive) with Malme-3M; 42.5 µM (inactive) in the assay on NCI-H226; 23.8 µM (inactive) in the assay on SNB-19. Moreover, the GI50 in the assay with OVCAR-3 was 34.8 µM (inactive); in the assay on SF-295, 19 µM (inactive).

As for `CS(=O)(=O)OCCCOS(C)(=O)=O`, the GI50 in the assay with SK-MEL-28 is > 100 µM (inactive); in the assay with DMS-273, > 100 µM (inactive); in the assay on HCC 2998, > 100 µM (inactive); in the assay on UACC-257, > 100 µM (inactive); in the assay on HT-29 it was > 100 µM (inactive); in the assay with HCT-15, above 100 µM. Moreover, the GI50 in the assay on HOP-92, with OVCAR-8, in the assay on EKVX, in the assay with OVCAR-4, in the assay with KM12 and with SR was > 100 µM (inactive) throughout. In addition, the GI50 in the assay on COLO 205, in the assay on MOLT-4, in the assay with NCI-H23, in the assay on Malme-3M, in the assay with NCI-H226 and with SNB-19 was > 100 µM (inactive) throughout. Moreover, the GI50 in the assay on OVCAR-3 and with SF-295 was > 100 µM (inactive) throughout.

(Values after ChEMBL document CHEMBL1201862, “PubChem BioAssay data set” (2004).)
